As a reminder, the IC50 is the concentration that gives 50% inhibition.

Like-named read-outs stand apart in the source and are kept apart here.

For assay [1], the system named is EA.hy926 cells. Description: SOD activity in H2O2-damaged cells. It is filed as cell-based. To be noted: 500 μmol/L H2O2 alone; control 126.15 ± 9.22. The protocol:
(§1) The activities of SOD and GSH-Px were assessed as follows. EA.hy926 cells were seeded in 6-well plates at 4 × 10^5 cells per well and cultured overnight. After attachment, the cells were serum-starved in high-glucose DMEM containing 1% FBS for 12 h, and then treated for 24 h with peptide solutions at the indicated concentrations or with captopril. […] After treatment, the cells were washed with ice-cold PBS, lysed on ice, and centrifuged to collect the supernatants. SOD and GSH-Px activities were measured spectrophotometrically at 550 nm and 412 nm, respectively, using a microplate reader. Enzyme activities were calculated, normalized to total protein content, and expressed as U/mg protein.

The test system of assay [2] is EA.hy926 cells. Description: GSH-Px activity in H2O2-damaged cells. It is filed as cell-based. To be noted: 500 μmol/L H2O2 alone; control 165.92 ± 5.21. The protocol: as §1
Assay [3] concerns EA.hy926 cells. Description: ET-1 level in Ang II-stimulated cells (ELISA). It is filed as cell-based. The conditions noted are these: Ang II 1 μmol/L alone; control 13.82 ± 0.69. How it is done: (§2) To evaluate the effect of the peptide on endothelial function, NO and ET-1 levels were measured in this study. Briefly, EA.hy926 cells were seeded in 6-well plates at a density of 4 × 10^5 cells/well and allowed to adhere overnight. After removing the medium, cells were incubated with 1 μmol/L Ang II for 12 h to induce endothelial dysfunction. Subsequently, the peptide solutions at different concentrations (0.1, 0.2, and 0.4 mg/mL) or the captopril solutions were added, and the cells were incubated for an additional 24 h. For the blank control group, the cells received no treatment. After incubation, the culture supernatants were collected and centrifuged to remove debris. Both NO and ET-1 contents in the supernatants were quantified using commercial kits according to the manufacturer’s protocols. NO content was determined using the Griess reaction (OD = 550 nm), and ET-1 levels were measured via enzyme-linked immunosorbent assay (ELISA) (OD = 450 nm). Absorbance values were recorded at the corresponding wavelengths using a microplate reader (Spark 10M, Tecan, Männedorf, Switzerland).
In general terms: An ELISA detects its analyte on a solid surface through an enzyme-linked reagent.

Assay [4] concerns EA.hy926 cells. Description: Wound healing assay (Ang II-induced migration). It is filed as cell-based. The conditions noted are these: Ang II 1 μmol/L alone. How it is done: The effect of peptides on endothelial cell migration was evaluated using a wound healing assay. Briefly, EA.hy926 cells were seeded into 6-well plates and cultured at 37 °C in a humidified atmosphere containing 5% CO2. When the cells reached full confluence, they were treated with 1 μmol/L Ang II for 12 h to induce endothelial dysfunction. Subsequently, a straight scratch was created across the cell monolayer using a sterile 200 μL pipette tip. Detached cells were gently removed by rinsing with PBS, leaving a clear cell-free wound area. To minimize proliferation interference, cells were then incubated in high-glucose DMEM containing 1% FBS, supplemented with different concentrations of the peptides or captopril. Images of the same wound area were captured at 0 h, 6 h, and 24 h using a fluorescence microscope (Axio Observer, Zeiss, Jena, Germany), and the wound area was quantified using ImageJ software (version 1.54g).

Assay [5] has as its system EA.hy926 cells. Briefly: NO level in Ang II-stimulated cells (Griess). It is filed as cell-based. The conditions noted are these: Ang II 1 μmol/L alone; control 109.8 ± 3.93. How it is done: as §2
On the technique in general: Griess reagent forms a coloured azo dye with nitrite.

In assay [6] the test system is ACE. The conditions noted are these: cited from earlier work. From the text:
As compared to traditional experiment-based screening approaches for ACE-inhibitory peptides, which are time-consuming and labor-intensive, an in silico strategy that integrates peptidomic analysis with virtual screening has emerged as a more efficient and cost-effective approach for identifying ACE-inhibitory peptides from food resources. For example, in a previous study by our group, a novel ACE-inhibitory peptide, MMDF, was identified from the simulated digest of oyster proteins using a virtual screening pipeline that incorporated bioactivity prediction, physicochemical proper ... || In recent years, the hydrolysates of royal jelly proteins (RJPs) have gained increasing attention due to their broad spectrum of biological activities, including antioxidant, antibacterial, anti-aging, and antihypertensive properties, which are largely attributed to their favorable amino acid composition and sequence characteristics.

Assay [7] deals with ACE. Also noted: method as in 4 sources, ref Han et al. [33] ||| ref 45 = [45]; PMID 35323475; doi:10.3390/md20030176; 45. Zheng S.-L. Luo Q.-B. Suo S.-K. Zhao Y.-Q. Chi C.-F. Wang B. Preparation, Identification, Molecular Docking Study and Protective Function on HUVECs of Novel ACE Inhibitory Peptides from Protein Hy ||| ref 36 = [36]; PMID 37888451; doi:10.3390/md21100516; 36. Hu Y.-D. Xi Q.-H. Kong J. Zhao Y.-Q. Chi C.-F. Wang B. Angiotensin-I-Converting Enzyme (ACE)-Inhibitory Peptides from the Collagens of Monkfish ( Lophius litulon ) Swim Bladders: Isolation, Charac ||| ref 46 = [46]; PMID 37944395; doi:10.1016/j.foodchem.2023.137921; 46. Du T. Xu Y. Xu X. Xiong S. Zhang L. Dong B. Huang J. Huang T. Xiao M. Xiong T. ACE Inhibitory Peptides from Enzymatic Hydrolysate of Fermented Black Sesame Seed: Random Forest-Based Optimization. The conditions noted are these: cited from earlier work. From the text: These comparisons support the interaction profile observed for PY ...

Assay [8] addresses T1, Angiotensin-converting enzyme (ACE) (Oryctolagus cuniculus, UniProt P12822).
T1 sequence (P12822 34-1310): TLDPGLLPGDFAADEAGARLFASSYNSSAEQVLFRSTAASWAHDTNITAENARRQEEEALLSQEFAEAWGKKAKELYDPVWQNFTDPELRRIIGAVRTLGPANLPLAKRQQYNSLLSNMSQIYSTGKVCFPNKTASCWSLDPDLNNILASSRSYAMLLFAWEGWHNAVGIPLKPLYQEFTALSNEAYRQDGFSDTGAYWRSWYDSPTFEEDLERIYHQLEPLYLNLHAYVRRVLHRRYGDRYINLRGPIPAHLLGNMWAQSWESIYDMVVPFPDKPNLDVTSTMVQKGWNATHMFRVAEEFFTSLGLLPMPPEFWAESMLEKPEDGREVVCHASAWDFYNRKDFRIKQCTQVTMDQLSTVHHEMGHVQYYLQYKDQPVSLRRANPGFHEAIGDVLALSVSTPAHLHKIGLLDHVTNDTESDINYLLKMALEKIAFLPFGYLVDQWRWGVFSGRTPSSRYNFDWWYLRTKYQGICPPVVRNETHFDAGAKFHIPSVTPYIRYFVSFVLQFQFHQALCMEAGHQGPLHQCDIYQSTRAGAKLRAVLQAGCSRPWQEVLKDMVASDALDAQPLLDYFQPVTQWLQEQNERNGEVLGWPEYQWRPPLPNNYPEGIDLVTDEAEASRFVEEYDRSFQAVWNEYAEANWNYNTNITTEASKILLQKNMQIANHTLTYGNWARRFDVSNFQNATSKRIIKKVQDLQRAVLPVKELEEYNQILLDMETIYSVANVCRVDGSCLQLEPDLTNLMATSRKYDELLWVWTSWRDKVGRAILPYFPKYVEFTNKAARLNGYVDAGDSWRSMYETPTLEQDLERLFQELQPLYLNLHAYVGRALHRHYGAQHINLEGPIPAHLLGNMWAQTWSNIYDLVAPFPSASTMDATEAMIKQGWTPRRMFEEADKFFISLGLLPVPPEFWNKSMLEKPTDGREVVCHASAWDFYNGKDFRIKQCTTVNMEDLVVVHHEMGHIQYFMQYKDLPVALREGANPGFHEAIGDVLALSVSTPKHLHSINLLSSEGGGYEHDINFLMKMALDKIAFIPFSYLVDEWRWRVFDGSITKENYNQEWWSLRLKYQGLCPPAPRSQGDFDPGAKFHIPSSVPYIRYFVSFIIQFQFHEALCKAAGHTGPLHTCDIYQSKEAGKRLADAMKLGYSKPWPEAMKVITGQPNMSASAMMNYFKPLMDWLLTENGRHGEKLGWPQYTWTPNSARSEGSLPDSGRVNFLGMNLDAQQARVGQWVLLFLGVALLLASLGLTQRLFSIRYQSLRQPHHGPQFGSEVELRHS
Description: In vitro ACE-inhibitory activity (HHL substrate, HPLC of hippuric acid). The conditions noted are these: tested at 0.5 mg/mL, p < 0.05. It is filed as biochemical. How it is done:
The ACE-inhibitory activity of the peptides was measured according to a previously reported method. Briefly, 50 μL of the peptide solution, prepared in borate buffer (pH 8.3) containing 0.3 mol/L NaCl, was mixed with 100 μL of HHL (5.82 mmol/L) prepared in the same buffer. After incubation at 37 °C for 5 min, the reaction was initiated by adding 15 μL of ACE solution (0.1 U/mL), also prepared in the borate buffer described above. The mixture was then incubated at 37 °C for 30 min and terminated by adding 150 μL of 1 mol/L HCl. For the blank control, the same procedure was performed using 50 μL of the borate buffer instead of the peptide solution.
The released hippuric acid (HA) was quantified using an Elite P3200 high-performance liquid chromatography (HPLC) system (Dalian Elite Analytical Instruments Co., Ltd., Dalian, China) equipped with a C18 reversed-phase column (Waters, Milford, MA, USA; 150 mm × 4.6 mm, 5 μm) at a detection wavelength of 228 nm. The mobile phase consisted of solvent A (water containing 0.05% trifluoroacetic acid) and solvent B (acetonitrile) in a ratio of 75:25 (v/v). […]
The ACE inhibition rate (%) was calculated using the following equation:(1) ACE Inhibitory rate%=Ablank−Asample/Ablank×100 where Ablank is the peak area of HA in the blank control test, and Asample is the peak area of HA in the sample test. […]

Assay [9] has as its system ACE. Also noted: method as in 3 sources, ref 40 = [40]; PMID 38384691; doi:10.1016/j.fochx.2024.101211; 40. Wei G. Wang T. Li Y. He R. Huang A. Wang X. Identification, Structural Characterization, and Molecular Dynamic Simulation of ACE Inhibitory Peptides in Whey Hydrolysates from Chinese Rushan Cheese ||| ref 41 = [41]; PMID 39250996; doi:10.1016/j.ijbiomac.2024.135469; 41. Wang S. Zhang L. Wang H. Liu J. Hu Y. Tu Z. Angiotensin Converting Enzyme (ACE) Inhibitory Peptide from the Tuna ( Thunnus thynnus ) Muscle: Screening, Interaction Mechanism and Stability Int. J. ||| ref 42 = [42]; PMID 37793525; doi:10.1016/j.ijbiomac.2023.127196; 42. Wang S. Zhang L. Wang H. Hu Z. Xie X. Chen H. Tu Z. Identification of Novel Angiotensin Converting Enzyme (ACE) Inhibitory Peptides from Pacific Saury: In Vivo Antihypertensive Effect and Transpor. The conditions noted are these: cited from earlier work.

Turning to `OO` [H2O2, hydrogen peroxide], the SOD activity with EA.hy926 cells [1] is on record as 67.47 ± 9.93 U/mg prot. The GSH-Px activity in the assay with EA.hy926 cells [2] was 119.49 ± 3.94 U/mg prot.

For “Angiotensin II (DRVYIHPF; Angiotensin-2; UniProt P01019 25-32, looked up) [Ang II, used to induce endothelial dysfunction]”, the ET-1 content in the assay on EA.hy926 cells [3] was determined as 15.65 ± 0.83 pg/mg prot. Besides, the Migration rate is 42.44 ± 2.12% in the assay with EA.hy926 cells [4] (6 h, control 35.95 ± 1.08%) and 89.68 ± 1.47% with EA.hy926 cells [4] (24 h, control 79.33 ± 0.48%). Moreover, in the assay with EA.hy926 cells [5], the NO level came out at 58.95 ± 4.31 μmol/g prot.

On to FDGPY [identified from Lophius litulon], for which the IC50 in the assay on ACE [6] (from Lophius litulon) is 1570 µM. The “Docking interactions with ACE” value with ACE [7] (monkfish swim bladder) is “interacted with Ala354 and Tyr523 via hydrogen bonding and hydrophobic interactions”.

As to “FDVDRW [RJP-derived peptide; synthesized]”, in assay [8], the “ACE-inhibitory activity in vitro (comparison in words)” value was “PYPDWSFAK and RPYPDWSF exhibited significantly higher ACE-inhibitory activity in vitro than FDVDRW and QWHDKIF”. On to FPPDVA, for which the half-maximal inhibitory concentration (IC50) with ACE [6] (from tuna dark muscle hydrolysates) was 87.1 ± 1.02 µM. As for “ITAPHW [from fermented black sesame seed]”, the “Docking interactions with ACE” value in the assay on ACE [7] (fermented black sesame seed) is recorded as “strong ACE inhibition due to direct Zn^2+ coordination”. On to “KWEKPF [from Chinese Rushan cheese by-products]”, for which the ACE inhibition mode entry with ACE [9] (from Chinese Rushan cheese by-products) is listed as “mixed-type ACE inhibition”. For LEPWR [from Pacific saury], the ACE inhibition mode entry with ACE [9] (from Pacific saury) is “mixed-type ACE inhibition”.

In the case of “LTGCP [from tuna (Thunnus thynnus) muscle]”, in the assay on ACE [9] (from tuna (Thunnus thynnus) muscle), the ACE inhibition mode result is “mixed-type ACE inhibition”.

Regarding “QWHDKIF [RJP-derived peptide; synthesized]”, the “ACE-inhibitory activity in vitro (comparison in words)” value in assay [8] was “PYPDWSFAK and RPYPDWSF exhibited significantly higher ACE-inhibitory activity in vitro than FDVDRW and QWHDKIF”. Regarding SEGPK [identified from Lophius litulon], the IC50 in the assay with ACE [6] (from Lophius litulon) was 1210 µM. Also, the “Docking interactions with ACE” value in the assay on ACE [7] (monkfish swim bladder) was “interacted with Ala354 and Tyr523 via hydrogen bonding and hydrophobic interactions”. In the case of “SLPNYHPSPR [from fermented black sesame seed]”, the “Docking interactions with ACE” value in the assay with ACE [7] (fermented black sesame seed) is on record as “strong ACE inhibition due to direct Zn^2+ coordination”.

For the compound SPGPW [identified from Lophius litulon], the half-maximal inhibitory concentration (IC50) in the assay with ACE [6] (from Lophius litulon) was 1310 µM. The “Docking interactions with ACE” value in the assay on ACE [7] (monkfish swim bladder) is “formed a hydrogen bond with the catalytic residue His387”. Regarding VDRYF [from skipjack tuna muscle], in the assay with ACE [7] (skipjack tuna muscle), the “Docking interactions with ACE” value was “formed hydrogen bonds with Ala354 and Tyr523 within S1 pocket, respectively”.

Source of the values: PMC12785803, “Novel ACE-Inhibitory Peptides from Royal Jelly Proteins: Comprehensive Screening, Mechanistic Insights, and Endothelial Protection” (Foods, 2025).
